Tests used:
STAT6 = assay: Immunoblot of liver lysates: STAT6; format: in vivo, mice; settings: IP
Method: (§1) For ConA induced hepatitis experiments spleen and liver lysates were lysed in RIPA buffer containing 50 mM Tris, pH 7.4, 1% NP-40, 150 mM NaCl, 0.1% SDS, 0.5% sodium deoxycholate and protease inhibitors (5 μg/ml, Sigma), with protease and phosphatase (Sigma, Rehovot, Israel).
(§2) Lysates were centrifuged twice at 4° C. for 10 minutes in 14000 rpm. Equivalent amounts of lysates (15 μg/lane), determined by Bradford assay (Bio-Rad, Rehovot, Israel), were separated by sodium dodecyl sulfate polyacrylamide gel electrophoresis (SDS-PAGE) and transferred to nitrocellulose membranes.
(§3) For ConA induced hepatitis experiments proteins were detected with phospho-specific STAT1-Tyr701, STAT6-Tyr641, STAT1, and STAT6 antibodies from Cell Signaling. β-actin (abcam, UK) was used as a loading control.
(§4) Blots were developed with horseradish peroxidase-conjugated secondary antibodies (Jackson Laboratories Bar Harbor, Me.) and Western Blot-Luminol Reagent (Santa Cruz Biotechnology, CA, USA). Cell counting and western Blot quantification was performed using total Lab (Phoretix, USA) software.

TNF-α = assay: Serum TNF-α by ELISA in ConA induced hepatitis; format: in vivo, mice; settings: intraperitoneal
Method: (§5) Serum levels of IFN-γ, TGF-β, TNF-α IL-2, IL-4, IL-6, IL-10 and IL-12 were determined by “sandwich” ELISA, using commercial kits (Quantikine, R&D Systems, Minneapolis, Minn., USA). Serum insulin was also determined by “sandwich” ELISA too, using the commercial kit of Mercodia AB (Uppsala, Sweden) according to the manufacturer's instructions.

IL-4 = assay: Serum IL-4 by ELISA in ConA induced hepatitis; format: in vivo, mice; settings: intraperitoneal, data not shown
Method: as §5

STAT1 = assay: Immunoblot of liver lysates: STAT1 phosphorylation; format: in vivo, mice; settings: IP
Method: as §1, §2, §3, §4

mouse splenocytes = assay: In vitro stimulation of splenocytes: supernatant IFN-γ by ELISA; format: cell-based
Method: Splenocytes were prepared as described above and plated at 2.0×10^5 cells per well in 96-well plates in RPMI-1640 supplemented with 5% FCS, […] 2-mercaptoethanol, 2 mM glutamine, 1% sodium pyruvate, and antibiotics. Titrated volumes of GC, α-GalCer, and ALIB-97 diluted in DMSO were added at final concentrations of 100 ng, 1 μg, and 10 μg/ml. After 72 h of culture, 1 μCi of [^3H] thymidine (Amersham Biosciences) was added to each well, and the cells were cultured for an additional 16 to 18 h. Cells were harvested with a cell harvester (Tomtec, Orange, Conn.), and the uptake of radioactivity was measured with a β-plate reader. To evaluate IFN-γ secretion in vitro, supernatants were harvested after 90 h of culture with glycolipids and stored until the cytokine levels were measured by ELISA.

STAT4 = assay: Immunoblot of liver lysates: STAT4; format: in vivo, mice; settings: IP
Method: as §1, §2, §4

AKT = assay: Western blot of liver extracts of ob/ob mice: AKT activation; format: in vivo; settings: per os daily 4 weeks, 15 μg (group D)
Method: For analysis of whole tissue lysates, snap-frozen liver pieces were homogenized in 0.75 ml of ice-cold PBS and centrifuged at 4° C. for 5 min in 2000 rpm. Pellets were lysed with 50 mM beta glycerophosphate, 1.5 mM EGTA, PH 7.3, 1 mM EDTA, PH 7.3, 1 mM DTT, 0.1 mM Sodium vanadate, 1% NP-40, and cocktails of protease and phosphatase (Sigma, Rehovot, Israel).
as §2
For metabolic syndrome experiments, proteins were detected with JNK-2, Phospho JNK (Thr183/Tyr185), Akt and phospho Akt (Ser 473) antibodies (Cell Signaling Technologies, MA). β-actin (abcam, UK) was used as the loading control.
as §4
Therefore, five groups of male C57BL/6 Ob/Ob mice were studied. […]

**Q.** `CCCCCCCCCCCCCC=CC(O)C(CO[C@@H]1OC(CO)[C@@H](O)C(O)C1O)NC(=S)NC12CC3CC(CC(C3)C1)C2` (stereo in doubt) [ALIB-97, N-adamantyl-N′-glucosylsphingosine thiourea] was tested. Which “STAT6 expression in the liver” value (STAT6; B6 mice) did it give?
**A.** The value was “slightly increased”.

**Q.** What about the “STAT6 expression in the liver” value (STAT6; CD1d−/− mice) of the same compound?
**A.** Its value is “markedly induced”.

**Q.** And the “serum TNF-α secretion” value (TNF-α; B6 mice)?
**A.** Its value is “modest effect”.

**Q.** What about the “serum TNF-α levels” value (TNF-α; CD1d−/− KO mice) of the same compound?
**A.** Its value is “decreased”.

**Q.** And the “serum TNF-α levels” value (TNF-α; Jα18−/− KO mice)?
**A.** Its value is “decreased”.

**Q.** What about the “serum levels of IL-4” value (IL-4) of the same compound?
**A.** The value was “did not affect”.

**Q.** And the “STAT1 phosphorylation of Tyr 701 in the liver” value (STAT1; B6 mice)?
**A.** Its value is “increased”.

**Q.** What about the “STAT1 phosphorylation of Tyr 701 in the liver” value (STAT1; CD1d−/− mice) of the same compound?
**A.** The value was “increased”.

**Q.** And the IFN-γ secretion (mouse splenocytes; CD1d−/− splenocytes)?
**A.** The IFN-γ secretion was “absence”.

**Q.** And the IFN-γ secretion (mouse splenocytes; Jα18−/− splenocytes)?
**A.** The IFN-γ secretion was “absence”.

**Q.** And the “activation of IFN-γ secretion” value (mouse splenocytes; mouse (B6) splenocytes, 100 ng)?
**A.** Its value is “more than 9 fold”.

**Q.** What about the “STAT4 expression in the liver” value (STAT4; B6 mice) of the same compound?
**A.** The value was “strikingly decreased”.

**Q.** What about the “STAT4 expression in the liver” value (STAT4; CD1d−/− mice) of the same compound?
**A.** Its value is “remained unchanged”.

**Q.** What about the AKT activation (AKT) of the same compound?
**A.** Its AKT activation is “decreased”.

Reference: US8592394B2, “Synthetic derivatives beta glycolipids and compositions thereof for the treatment of pathologic disorders” (Enzo Therapeutics, Inc., priority 2003, dated 2013)
